ChEMBL document CHEMBL1155400, “The design and development of 2-aryl-2-hydroxy ethylamine substituted 1H,7H-pyrido[1,2,3-de]quinoxaline-6-carboxamides as inhibitors of human cytomegalovirus polymerase” (Bioorg Med Chem Lett, 2010)
Values after ≈ are worked out from the molar mass of the structure shown.

How the values were obtained:
[1] = Inhibition of HCMV recombinant DNA polymerase expressed in baculovirus infected SF9 cells after 12 mins by scintillation proximity assay; parameters: species or system Human betaherpesvirus 5
[2] = test system: Human betaherpesvirus 5; assay: Antiviral activity against Human cytomegalovirus infected in HFF cells by plaque reduction assay; format: functional, organism-based; conditions: Human betaherpesvirus 5, HFF
[3] = Cytotoxicity against HFF cells after 3 days by […] dye uptake assay; format: cell-based; conditions: human
[4] = molecular target: T1, DNA polymerase alpha catalytic subunit (Homo sapiens, UniProt P09884); assay: Inhibition of human recombinant DNA polymerase alpha expressed in baculovirus infected SF9 cells after 12 mins by scintillation proximity assay
T1 sequence (P09884 whole entry): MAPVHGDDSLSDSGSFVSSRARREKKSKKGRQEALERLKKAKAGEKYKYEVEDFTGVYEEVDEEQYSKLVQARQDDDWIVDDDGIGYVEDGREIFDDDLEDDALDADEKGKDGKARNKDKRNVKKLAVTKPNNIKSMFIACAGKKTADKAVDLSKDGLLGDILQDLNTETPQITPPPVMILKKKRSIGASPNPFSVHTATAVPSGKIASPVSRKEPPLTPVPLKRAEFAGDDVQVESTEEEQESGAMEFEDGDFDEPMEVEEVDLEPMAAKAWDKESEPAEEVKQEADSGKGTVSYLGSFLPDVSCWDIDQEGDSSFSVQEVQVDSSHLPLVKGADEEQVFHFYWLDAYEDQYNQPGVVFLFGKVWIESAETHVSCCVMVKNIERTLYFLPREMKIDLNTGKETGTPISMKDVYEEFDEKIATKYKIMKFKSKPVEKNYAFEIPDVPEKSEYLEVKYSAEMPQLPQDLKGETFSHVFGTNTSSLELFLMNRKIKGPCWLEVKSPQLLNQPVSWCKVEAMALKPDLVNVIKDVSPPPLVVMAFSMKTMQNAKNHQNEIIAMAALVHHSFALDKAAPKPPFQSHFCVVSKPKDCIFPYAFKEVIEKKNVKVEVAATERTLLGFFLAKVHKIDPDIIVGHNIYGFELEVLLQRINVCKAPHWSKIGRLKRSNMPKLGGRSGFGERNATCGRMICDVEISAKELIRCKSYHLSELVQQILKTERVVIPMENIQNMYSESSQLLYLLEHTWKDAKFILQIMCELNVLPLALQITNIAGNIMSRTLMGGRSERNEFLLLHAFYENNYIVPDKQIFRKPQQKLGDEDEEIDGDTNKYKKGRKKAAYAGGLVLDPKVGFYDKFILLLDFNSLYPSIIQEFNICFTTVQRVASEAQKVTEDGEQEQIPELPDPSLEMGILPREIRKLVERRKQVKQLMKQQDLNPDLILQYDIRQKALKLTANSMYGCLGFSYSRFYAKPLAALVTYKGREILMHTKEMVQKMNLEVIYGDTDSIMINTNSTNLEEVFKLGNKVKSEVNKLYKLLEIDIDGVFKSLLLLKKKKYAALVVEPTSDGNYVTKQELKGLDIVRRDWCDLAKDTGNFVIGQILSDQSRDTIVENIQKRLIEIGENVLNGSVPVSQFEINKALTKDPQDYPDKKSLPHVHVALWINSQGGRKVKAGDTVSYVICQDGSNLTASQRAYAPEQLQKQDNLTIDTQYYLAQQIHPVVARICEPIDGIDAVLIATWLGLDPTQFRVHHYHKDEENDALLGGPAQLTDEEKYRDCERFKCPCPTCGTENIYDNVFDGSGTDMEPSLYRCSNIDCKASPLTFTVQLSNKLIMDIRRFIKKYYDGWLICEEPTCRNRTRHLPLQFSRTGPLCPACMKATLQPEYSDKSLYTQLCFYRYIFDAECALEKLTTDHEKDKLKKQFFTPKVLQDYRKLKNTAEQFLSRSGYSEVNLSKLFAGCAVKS

[5] = test system: Human alphaherpesvirus 3; assay: Antiviral activity against Varicella zoster virus infected in HFF cells by plaque reduction assay; format: functional, organism-based; conditions: Human alphaherpesvirus 3, HFF
[6] = Inhibition of Varicella zoster virus recombinant DNA polymerase expressed in baculovirus infected SF9 cells after 12 mins by scintillation proximity assay; parameters: species or system Human alphaherpesvirus 3
[7] = Aqueous solubility of the compound; format: physicochemical

| Compound | IC50 [1] [nM] | IC50 [2] [nM] | CC50 at 72 h [3] [nM] | also measured |
| --- | --- | --- | --- | --- |
| CN(Cc1cc2c3c(c1)c(=O)c(C(=O)NCc1ccc(Cl)cc1)cn3CC(=O)N2C)C[C@H](O)c1cccnc1 | 4550 | – | – | – |
| Nc1nc2c(ncn2COCCO)c(=O)[nH]1 [ACYCLOVIR] | – | 20000 | – | – |
| CN(Cc1cc2c3c(c1)c(=O)c(C(=O)NCc1ccc(Cl)cc1)cn3CC(=O)N2C)C[C@H](O)c1cnccn1 | 7700 | – | – | – |
| CN(Cc1cc2c3c(c1)c(=O)c(C(=O)NCc1ccc(Cl)cc1)cn3CC(=O)N2C)C[C@@H](O)c1nccs1 | 490 | 100 | – | – |
| CN(Cc1cc2c3c(c1)c(=O)c(C(=O)NCc1ccc(Cl)cc1)cn3CC(=O)N2C)C[C@@H](O)c1cccnc1 | 150 | 10 | > 15000 | – |
| O=C(NCc1ccc(Cl)cc1)c1cn2c3c(cc(CN4CCOCC4)cc3c1=O)N(CCO)C(=O)C2 | 830 | 700 | – | – |
| CN(Cc1cc2c3c(c1)c(=O)c(C(=O)NCc1ccc(Cl)cc1)cn3CC(=O)N2C)C[C@@H](O)c1cc2ccccc2o1 | 4 | 1 | > 15000 | IC50 [4]: > 5000 nM; IC50 [5]: 4 nM; IC50 [6]: 29 nM; solubility [7]: 0.94 µg/mL (≈ 1.61 µM) |
| CN(Cc1cc2c3c(c1)c(=O)c(C(=O)NCc1ccc(Cl)cc1)cn3CC(=O)N2C)C[C@H](O)c1ccccc1 | 9160 | – | – | – |
| CN(Cc1cc2c3c(c1)c(=O)c(C(=O)NCc1ccc(Cl)cc1)cn3CC(=O)N2C)C[C@@H](O)c1ccccn1 | 300 | 20 | > 15000 | – |
| CCN1C(=O)Cn2cc(C(=O)NCc3ccc(Cl)cc3)c(=O)c3cc(CN4CCOCC4)cc1c32 | 1280 | – | – | – |
| CN(Cc1cc2c3c(c1)c(=O)c(C(=O)NCc1ccc(Cl)cc1)cn3CC(=O)N2C)C[C@@H](O)c1cnccn1 | 260 | 200 | – | – |
| CN(Cc1cc2c3c(c1)c(=O)c(C(=O)NCc1ccc(Cl)cc1)cn3CC(=O)N2C)C[C@H](O)c1ccsc1 | 5720 | – | – | – |
| O=C(NCc1ccc(Cl)cc1)c1cn2c3c(cc(CN4CCOCC4)cc3c1=O)N(CCCO)C(=O)C2 | 1840 | – | – | – |
| CN(Cc1cc2c3c(c1)c(=O)c(C(=O)NCc1ccc(Cl)cc1)cn3CC(=O)N2C)C[C@@H](O)c1ccsc1 | 190 | 100 | > 15000 | – |
| CN(Cc1cc2c(=O)c(C(=O)NCc3ccc(Cl)cc3)cn(C)c2s1)C[C@@H](O)c1ccco1 | 35 | 7 | – | solubility [7]: 0.19 µg/mL (≈ 0.391 µM) |
| CN(Cc1cc2c3c(c1)c(=O)c(C(=O)NCc1ccc(Cl)cc1)cn3CC(=O)N2C)C[C@H](O)c1ccco1 | 4930 | – | – | – |
| CN(Cc1cc2c3c(c1)c(=O)c(C(=O)NCc1ccc(Cl)cc1)cn3CC(=O)N2C)C[C@@H](O)c1ccccc1 | 130 | 100 | > 15000 | – |
| CN(Cc1cc2cc(CCO)n3cc(C(=O)NCc4ccc(Cl)cc4)c(=O)c(c1)c23)C[C@@H](O)c1cnccn1 | 14 | 10 | – | solubility [7]: 17 µg/mL (≈ 31.1 µM) |
| CN(Cc1cc2c3c(c1)c(=O)c(C(=O)NCc1ccc(Cl)cc1)cn3CC(=O)N2C)C[C@H](O)c1nccs1 | 6200 | – | – | – |
| Cn1cc(C(=O)NCc2ccc(Cl)cc2)c(=O)c2cc(CN3CCOCC3)ccc21 | 690 | 300 | – | – |
| CN(Cc1cc2c(=O)c(C(=O)NCc3ccc(Cl)cc3)cn(C)c2o1)C[C@@H](O)c1ccco1 | 76 | 26 | – | – |
| O=C(NCc1ccc(Cl)cc1)c1cn2c3c(cc(CN4CCOCC4)cc3c1=O)N(CCCN1CCOCC1)C(=O)C2 | 4410 | – | – | – |
| CN(Cc1cc2c3c(c1)c(=O)c(C(=O)NCc1ccc(Cl)cc1)cn3CC(=O)N2C)CC(O)c1ccc2ccccc2n1 (racemic) | 42 | – | > 15000 | – |
| CN1C(=O)Cn2cc(C(=O)NCc3ccc(Cl)cc3)c(=O)c3cc(CN4CCOCC4)cc1c32 | 620 | 100 | – | IC50 [4]: > 5000 nM; IC50 [5]: 20 nM; IC50 [6]: 180 nM; solubility [7]: 8.6 µg/mL (≈ 17.9 µM) |
| CN(Cc1cc2c3c(c1)c(=O)c(C(=O)NCc1ccc(Cl)cc1)cn3CC(=O)N2C)CC(O)c1csc2ccccc12 (racemic) | 97 | 100 | > 15000 | – |
| CN(Cc1cc2c3c(c1)c(=O)c(C(=O)NCc1ccc(Cl)cc1)cn3CC(=O)N2C)CC(O)c1cc2ccccc2o1 (racemic) | 8 | – | > 15000 | – |
| CN(Cc1cc2c3c(c1)c(=O)c(C(=O)NCc1ccc(Cl)cc1)cn3CC(=O)N2C)C[C@H](O)c1ccccn1 | 5250 | – | – | – |
| Cn1cc(C(=O)NCc2ccc(Cl)cc2)c(=O)c2cc(CCCO)sc21 | 400 | 600 | – | – |
| CN(Cc1cc2c3c(c1)c(=O)c(C(=O)NCc1ccc(Cl)cc1)cn3CC(=O)N2C)C[C@H](O)c1cc2ccccc2o1 | 180 | 90 | > 15000 | – |
| CN(Cc1cc2c3c(c1)c(=O)c(C(=O)NCc1ccc(Cl)cc1)cn3CC(=O)N2C)C[C@@H](O)c1ccco1 | 110 | 10 | > 15000 | – |
